Measured values published in article PMC6353801, “Enhanced Anti-diabetic Effect of Berberine Combined With Timosaponin B2 in Goto-Kakizaki Rats, Associated With Increased Variety and Exposure of Effective Substances Through Intestinal Absorption” (Frontiers in Pharmacology, 2019).

Key:
[1] = tested on: primary rat hepatocytes; assay: Hepatic metabolism in primary hepatocytes; details: 3 h
[2] = Liver distribution in Wistar rats; details: liver; for increase in Cmax on co-administration vs single treatment / exposure (AUC) of metabolite as share of the exposure of BBR / AUC ± SE / Cmax / Tmax / increase in AUC on co-administration vs single treatment: Wistar rats; for AUC ± SE / Cmax / half-life / Tmax: n = 5; for Cmax / half-life / Tmax: male, Wistar, rat, po; for Cmax: Cmax ± SE; for half-life: T1/2, Wistar rats
[3] = Body weight, food intake, organ coefficients and side effects in GK rats; type: in vivo, rat; details: day 42
Protocol: (§1) Four-week-old male GK rats were fed a high-fat diet, and age-matched non-diabetic Wistar rats were fed standard chow as the control group. Under these dietary conditions, blood glucose was estimated each week for 7 weeks in 12-h fasted rats using a portable glucometer (One Touch Sure Step Meter, Johnson & Johnson, United States) by drawing the blood from the tail vein. GK rats with fasting blood glucose levels (FBG) above 16.7 mM were considered as diabetic rats, and only uniformly diabetic rats were used in this study. […] All the drugs were suspended in 0.5% carboxymethylcellulose sodium (CMC-Na) solution for oral gavage (10 ml/kg) once per day (at 9:00) for 6 weeks. Simultaneously, the Wistar and vehicle groups received vehicle over the treatment period. Food consumption and body weight were measured every week throughout the experimental periods. Non-fasting blood glucose (NFBG) levels were determined by collecting blood samples from the tail vein (at 9:00), and FBG levels were determined after a 6-h fast (at 15:00) on days 0, 7, 14, 21, and 42. On day 28, an oral glucose tolerance test (OGTT) was performed after an overnight fast. […] On day 42, the rats were anesthetized with urethane (1.4 g/kg, dissolved in saline) after an overnight fast and were sacrificed to collect the liver, kidney, heart, and spleen. The organs were weighed after washing with saline and drying to calculate the organ coefficient, namely, the ratio between the weight of organs and the body in each rat.

[4] = tested on: GK rats; assay: Oral glucose tolerance test (OGTT) in GK rats on day 28; type: in vivo, rat; details: after 4 weeks of treatment, glucose 2 g/kg oral
Protocol: as §1

[5] = tested on: GK rats; assay: NFBG and FBG levels in GK rats, 6-week oral treatment; type: in vivo, rat; details: during 6-week treatment, TB-2 33.3, BBR 66.7, TB-2+BBR 100, metformin 200 mg/kg/day
Protocol: as §1

[6] = single oral BBR 66.7 mg/kg alone
[7] = single oral BBR+TB-2 (66.7+33.3 mg/kg)
[8] = single treatment (On TB-2 treatments)
[9] = 33.3 mg/kg, single oral BBR+TB-2 (66.7+33.3 mg/kg)
[10] = 66.7 mg/kg, single oral BBR 66.7 mg/kg alone

Row | SMILES | effect on BBR metabolism and the generation of M2–M5 ([1]; BBR 1 μM, ABT 1 mM, TB-2 0.1 to 30 μM) | increase in Cmax on co-administration vs single treatment [2] [%] | exposure (AUC) of metabolite as share of the exposure of BBR ([2]; TB-2+BBR treatments) [%] | AUC ± SE [2, 6] [h ∗ ng/g] | AUC ± SE [2, 7] | exposure (AUC) of metabolite as share of the exposure of BBR [2, 8] [%] | Cmax [2, 9] [ng/g] | half-life [2, 9] [h] | Tmax [2, 9] [h] | Cmax [2, 10] [ng/g] | half-life [2, 10] [h] | Tmax [2, 10] [h] | increase in AUC on co-administration vs single treatment [2] [%] | effect on organ coefficients (liver and kidney) vs vehicle [3] | decrease in the AUC of blood glucose in OGTT vs vehicle [4] [%] | decrease of blood glucose levels in OGTT at 30 min vs vehicle [4] [%] | FBG levels compared with the vehicle group (in words) [5] | NFBG levels compared with the vehicle group (in words) [5] | metabolism after incubation (in words) ([1]; midazolam 20 μM, TB-2 1 μM)
1 | Nn1nnc2ccccc21 [ABT, 1-aminobenzotriazole] | completely abrogated |  |  |  |  |  |  |  |  |  |  |  |  |  |  |  |  |  | 
2 | COc1c(O)ccc2cc3[n+](cc12)CCc1cc2c(cc1-3)OCO2 [M2, Thalifendine] |  | 117 | 144 | 5935.8 ± 164.9 | 6651.2 ± 469.0 h ∗ ng/g | 182 | 1660 ± 255 | 5 | 2 | 766 ± 54.3 | 6.8 | 4 |  |  |  |  |  |  | 
3 | COc1ccc2cc3[n+](cc2c1OC)CCc1cc(O)c(O)cc1-3 [M3, demethyleneberberine] |  | 174 | 12 | 234.5 ± 29.3 | 572.9 ± 34.7^∗∗∗ h ∗ ng/g | 7 | 106 ± 18.2 | 6.2 | 2 | 38.8 ± 5.6 | 18.5 | 2 | 144 |  |  |  |  |  | 
4 | COc1cc2c(cc1O)CC[n+]1cc3c(OC)c(OC)ccc3cc1-2 [M4, jatrorrhizine] |  | 156 | 15 | 527.5 ± 25.0 | 690.8 ± 59.6^∗ h ∗ ng/g | 16 | 200 ± 33.7 | 7 | 2 | 78.2 ± 10.7 | 9.7 | 2 | 31 |  |  |  |  |  | 
5 | COc1cc2c(cc1O)-c1cc3ccc(OC)c(OC)c3c[n+]1CC2 [M5, columbamine] |  |  | 11 | 362.8 ± 18.7 | 489.2 ± 59.2^∗ h ∗ ng/g | 11 | 184 ± 38.4 | 6 | 2 | 89.4 ± 15.6 | 9.5 | 2 | 35 |  |  |  |  |  | 
6 | CN(C)C(=N)N=C(N)N [metformin] |  |  |  |  |  |  |  |  |  |  |  |  |  | no effect | 11.3 | 30 | significantly decreased | did not significantly decrease | 
7 | Cc1ncc2n1-c1ccc(Cl)cc1C(c1ccccc1F)=NC2 [midazolam] |  |  |  |  |  |  |  |  |  |  |  |  |  |  |  |  |  |  | significantly metabolized
